Test results as given in patent US12072333B2, “Method and apparatus for selective removal of cells from a cell suspension by mechanical lysis” (UNIVERSITY OF IOWA RESEARCH FOUNDATION, priority 2016, dated 2024).

System: prostate cancer cells
Assay: Cell killing by ionomycin measured by uptake of trypan blue dye
Assay type: cell-based
Conditions: prostate cancer cells treated with ionomycin; after 30 minute; FIG. 1B

C[C@H](CCC(=O)O)C[C@H](C)C[C@H](C)C(=O)/C=C(\O)[C@H](C)C[C@H](C)C/C=C/[C@@H](C)[C@@H](O)[C@@H](C)[C@@H](O)C[C@@H]1CC[C@@](C)([C@H]2CC[C@@](C)([C@@H](C)O)O2)O1 [ionomycin]
cell death as measured by uptake of trypan blue dye: rapidly kills these cells
